Experimental data from US7576222B2, “Alkynyl-containing tryptophan derivative inhibitors of TACE/matrix metalloproteinase” (priority 2004, dated 2009).
pIC50: −log10 of the molar value.

The molecules below were run against T1, catalytic domain of the recombinant TACE protein (Homo sapiens, UniProt P78536) (assay: TACE FRET assay using TACE cat). Details: not given.
T1 construct: The catalytic domain of the recombinant TACE protein was expressed and purified; made in house
T1 sequence (P78536 223-474 limits assumed): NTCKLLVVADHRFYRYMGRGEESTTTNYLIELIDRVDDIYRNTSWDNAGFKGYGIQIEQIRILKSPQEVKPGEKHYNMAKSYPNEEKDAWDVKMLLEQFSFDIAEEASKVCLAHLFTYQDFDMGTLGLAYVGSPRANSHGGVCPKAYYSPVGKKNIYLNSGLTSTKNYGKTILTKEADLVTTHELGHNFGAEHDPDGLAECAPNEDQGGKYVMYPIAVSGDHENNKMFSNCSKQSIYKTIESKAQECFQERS
Format: biochemical
Description: TACE FRET Assay Using TACE Cat
“K” is the IC50. Generally, “n” and “B” are floated, noting that n (Hill slope) should be close to 1 and B (background offset) to 0.
Pro-TNF-α substrate peptide Abz-[…]-Dpa (AnaSpec, San Jose, Calif., WARC-1) was prepared as a 2 mM stock solution in the TACE assay buffer (50 mM Tris-HCl, pH 7.4, 25 mM NaCl, 4% Glycerol, 0.005% Brij 35). The catalytic domain of the recombinant TACE protein was expressed and purified. The TACE protein (1 ug/ml) was pretreated with the inhibitors at various concentrations for 10 min. at room temperature. The reaction was initiated by the addition of the substrate peptide. […] The initial rate (slope) of the reaction was determined using a fluorescence plate reader (Molecular Devices, Spectra Max Gemini XS).
With `CC#CCOc1ccc(S(=O)(=O)N[C@@H](Cc2cn(CCCCC)c3ccc(OC)cc23)C(=O)O)cc1` [Example 68, N-{[4-(but-2-ynyloxy)phenyl]sulfonyl}-5-methoxy-1-pentyltryptophan] the pIC50 was 5.88. Molecule `CC#CCOc1ccc(S(=O)(=O)N[C@@H](Cc2cn(Cc3cccc(C(F)(F)F)c3)c3ccc(OC)cc23)C(=O)O)cc1` [Example 56, N-{[4-(but-2-ynyloxy)phenyl]sulfonyl}-5-methoxy-1-[3-(trifluoromethyl)benzyl]tryptophan] has a pIC50 of 5.68. Work on `CC#CCOc1ccc(S(=O)(=O)N[C@@H](Cc2c[nH]c3cc(F)ccc23)C(=O)O)cc1` [Example 7, N-{[4-(but-2-ynyloxy)phenyl]sulfonyl}-6-fluorotryptophan] yielded a pIC50 of 5.53. For `CC#CCOc1ccc(S(=O)(=O)N[C@@H](Cc2c(C)n(Cc3cccc(OC)c3)c3ccc(OC)cc23)C(=O)O)cc1` [Example 190, N-{[4-(but-2-ynyloxy)phenyl]sulfonyl}-5-methoxy-1-(3-methoxybenzyl)-2-methyltryptophan], the pIC50 was 6.59. `CC#CCOc1ccc(S(=O)(=O)N[C@@H](Cc2c(C)n(Cc3cccc(C#N)c3)c3ccc(OC)cc23)C(=O)O)cc1` [Example 204, N-{[4-(but-2-ynyloxy)phenyl]sulfonyl}-1-(3-cyanobenzyl)-5-methoxy-2-methyltryptophan] gave a pIC50 of 6.32. `CC#CCOc1ccc(S(=O)(=O)N[C@@H](Cc2cn(CC(C)C)c3ccc(OC)cc23)C(=O)O)cc1` [Example 67, N-{[4-(but-2-ynyloxy)phenyl]sulfonyl}-1-isobutyl-5-methoxytryptophan] showed a pIC50 of 5.91. Work on `CC#CCOc1ccc(S(=O)(=O)N[C@@H](Cc2c(C)n(Cc3ccccc3C)c3ccc(OC)cc23)C(=O)O)cc1` [Example 186, N-{[4-(but-2-ynyloxy)phenyl]sulfonyl}-5-methoxy-2-methyl-1-(2-methylbenzyl)tryptophan] yielded a pIC50 of 6.55.

Same assay, conditions: TACE FRET assay, catalytic domain of recombinant TACE; read-out: TACE IC50
`CC#CCOc1ccc(S(=O)(=O)N[C@H](Cc2cn(C(=O)OC(C)(C)C)c3ccccc23)C(=O)O)cc1` [Example 220, 1-(tert-butoxycarbonyl)-N-{[4-(but-2-ynyloxy)phenyl]sulfonyl}-D-tryptophan] showed a pIC50 of 5.44. `CC#CCOc1ccc(S(=O)(=O)N[C@H](Cc2cn(Cc3ccc(Cl)cc3)c3ccccc23)C(=O)O)cc1` [Example 42, N-{[4-(but-2-ynyloxy)phenyl]sulfonyl}-1-(4-chlorobenzyl)-D-tryptophan] was tested, and the pIC50 was 5.46.

Same assay, conditions: read-out: TACE Inhibition (%)
`CC#CCOc1ccc(S(=O)(=O)N[C@@H](Cc2c(C)n(Cc3ccccc3C#N)c3ccccc23)C(=O)O)cc1` [Example 158, N-{[4-(but-2-ynyloxy)phenyl]sulfonyl}-1-(2-cyanobenzyl)-2-methyltryptophan] gave an inhibition at 1 µM of 72.1%. For `CC#CCOc1ccc(S(=O)(=O)N[C@@H](Cc2c(C)n(Cc3cc(F)cc(F)c3)c3ccccc23)C(=O)O)cc1` [Example 155, N-{[4-(but-2-ynyloxy)phenyl]sulfonyl}-1-(3,5-difluorobenzyl)-2-methyltryptophan], the inhibition at 1 µM was 54.3%. Molecule `CC#CCOc1ccc(S(=O)(=O)N[C@@H](Cc2c(C)n(Cc3ccc(F)cc3)c3ccc(Cl)cc23)C(=O)O)cc1` [Example 95, N-{[4-(but-2-ynyloxy)phenyl]sulfonyl}-5-chloro-1-(4-fluorobenzyl)-2-methyltryptophan] has an inhibition at 1 µM of 63.6%. `CC#CCOc1ccc(S(=O)(=O)N[C@@H](Cc2cn(Cc3cccc(C)c3)c3ccc(OC)cc23)C(=O)O)cc1` [Example 50, N-{[4-(but-2-ynyloxy)phenyl]sulfonyl}-5-methoxy-1-(3-methylbenzyl)tryptophan] showed an inhibition at 1 µM of 30.6%. `CC#CCOc1ccc(S(=O)(=O)N[C@@H](Cc2c(C)n(Cc3ccc(OC(F)(F)F)cc3)c3ccc(Cl)cc23)C(=O)O)cc1` [Example 94, N-{[4-(but-2-ynyloxy)phenyl]sulfonyl}-5-chloro-2-methyl-1-[4-(trifluoromethoxy)benzyl]tryptophan] gave an inhibition at 1 µM of 47.4%. With `CC#CCOc1ccc(S(=O)(=O)N[C@@H](Cc2cn(Cc3cccnc3)c3ccc(C(=O)O)cc23)C(=O)O)cc1` [Example 125, N-{[4-(but-2-ynyloxy)phenyl]sulfonyl}-5-carboxy-1-(pyridin-3-ylmethyl)tryptophan] the inhibition at 1 µM was 6.23%. `CC#CCOc1ccc(S(=O)(=O)N[C@@H](Cc2cn(Cc3ccc(OC(F)(F)F)cc3)c3ccc(C(=O)O)cc23)C(=O)O)cc1` [Example 114, N-{[4-(but-2-ynyloxy)phenyl]sulfonyl}-5-carboxy-1-[4-(trifluoromethoxy)benzyl]tryptophan] gave an inhibition at 1 µM of 10.3%. `CC#CCOc1ccc(S(=O)(=O)N[C@@H](Cc2cn(Cc3ccc(Cl)cc3)c3ccc(OC)cc23)C(=O)O)cc1` [Example 62, N-{[4-(but-2-ynyloxy)phenyl]sulfonyl}-1-(4-chlorobenzyl)-5-methoxytryptophan] gave an inhibition at 1 µM of 39.3%. For `CC#CCOc1ccc(S(=O)(=O)N[C@@H](Cc2c(C)n(Cc3ccc(C(F)(F)F)cc3)c3ccc(OC)cc23)C(=O)O)cc1` [Example 195, N-{[4-(but-2-ynyloxy)phenyl]sulfonyl}-5-methoxy-2-methyl-1-[4-(trifluoromethyl)benzyl]tryptophan], the inhibition at 1 µM was 78.3%. With `CC#CCOc1ccc(S(=O)(=O)N[C@@H](Cc2cn(Cc3cccc(F)c3)c3ccc(Cl)cc23)C(=O)O)cc1` [Example 80, N-{[4-(but-2-ynyloxy)phenyl]sulfonyl}-5-chloro-1-(3-fluorobenzyl)tryptophan] the inhibition at 1 µM was 27.1%. `CC#CCOc1ccc(S(=O)(=O)N[C@@H](Cc2c(C)n(Cc3ccc(Cl)cc3)c3ccc(Cl)cc23)C(=O)O)cc1` [Example 96, N-{[4-(but-2-ynyloxy)phenyl]sulfonyl}-5-chloro-1-(4-chlorobenzyl)-2-methyltryptophan] was tested, and the inhibition at 1 µM was 56.5%. `CC#CCOc1ccc(S(=O)(=O)N[C@@H](Cc2cn(Cc3ccc(C(C)C)cc3)c3ccc(C#N)cc23)C(=O)O)cc1` [Example 142, N-{[4-(but-2-ynyloxy)phenyl]sulfonyl}-5-cyano-1-(4-isopropylbenzyl)tryptophan] was tested, and the inhibition at 1 µM was 8.34%. In the case of `CC#CCOc1ccc(S(=O)(=O)N[C@@H](Cc2c(C)n(Cc3ccc(OC(F)(F)F)cc3)c3ccccc23)C(=O)O)cc1` [Example 151, N-{[4-(but-2-ynyloxy)phenyl]sulfonyl}-2-methyl-1-[4-(trifluoromethoxy)benzyl]tryptophan], the inhibition at 1 µM was 24.3%. In the case of `CC#CCOc1ccc(S(=O)(=O)N[C@@H](Cc2c(C)n(Cc3ccccc3OC)c3ccc(OC)cc23)C(=O)O)cc1` [Example 189, N-{[4-(but-2-ynyloxy)phenyl]sulfonyl}-5-methoxy-1-(2-methoxybenzyl)-2-methyltryptophan], the inhibition at 1 µM was 75.6%. For `CC#CCOc1ccc(S(=O)(=O)N[C@@H](Cc2c(C)n(Cc3cccc(OC)c3)c3ccc(Cl)cc23)C(=O)O)cc1` [Example 90, N-{[4-(but-2-ynyloxy)phenyl]sulfonyl}-5-chloro-1-(3-methoxybenzyl)-2-methyltryptophan], the inhibition at 1 µM was 65.2%. With `CC#CCOc1ccc(S(=O)(=O)N[C@@H](Cc2cn(Cc3cc(OC)cc(OC)c3)c3ccc(C(=O)O)cc23)C(=O)O)cc1` [Example 110, N-{[4-(but-2-ynyloxy)phenyl]sulfonyl}-5-carboxy-1-(3,5-dimethoxybenzyl)tryptophan] the inhibition at 1 µM was 8.02%. For `CC#CCOc1ccc(S(=O)(=O)N[C@@H](Cc2c(C)n(Cc3ccccc3OC)c3ccc(Cl)cc23)C(=O)O)cc1` [Example 89, N-{[4-(but-2-ynyloxy)phenyl]sulfonyl}-5-chloro-1-(2-methoxybenzyl)-2-methyltryptophan], the inhibition at 1 µM was 53.6%. `CC#CCOc1ccc(S(=O)(=O)N[C@H](Cc2cn(Cc3ccc(O)cc3)c3ccccc23)C(=O)O)cc1` [Example 214, N-{[4-(but-2-ynyloxy)phenyl]sulfonyl}-1-(4-hydroxybenzyl)-D-tryptophan] showed an inhibition at 1 µM of 8.77%. `CC#CCOc1ccc(S(=O)(=O)N[C@@H](Cc2c(C)n(Cc3ccccc3F)c3ccccc23)C(=O)O)cc1` [Example 152, N-{[4-(but-2-ynyloxy)phenyl]sulfonyl}-1-(2-fluorobenzyl)-2-methyltryptophan] was tested, and the inhibition at 1 µM was 51.7%. Molecule `CC#CCOc1ccc(S(=O)(=O)N[C@@H](Cc2c(C)n(Cc3ccc(Cl)cc3)c3ccccc23)C(=O)O)cc1` [Example 156, N-{[4-(but-2-ynyloxy)phenyl]sulfonyl}-1-(4-chlorobenzyl)-2-methyltryptophan] has an inhibition at 1 µM of 43.3%. For `CC#CCOc1ccc(S(=O)(=O)N[C@@H](Cc2cn(Cc3ccc4c(c3)OCO4)c3ccc(C(=O)O)cc23)C(=O)O)cc1` [Example 124, 1-(1,3-benzodioxol-5-ylmethyl)-N-{[4-(but-2-ynyloxy)phenyl]sulfonyl}-5-carboxytryptophan], the inhibition at 1 µM was 10.2%. Work on `CC#CCOc1ccc(S(=O)(=O)N[C@@H](Cc2c(C)n(Cc3ccc(C)cc3)c3ccc(Cl)cc23)C(=O)O)cc1` [Example 92, N-{[4-(but-2-ynyloxy)phenyl]sulfonyl}-5-chloro-2-methyl-1-(4-methylbenzyl)tryptophan] yielded an inhibition at 1 µM of 64%. Work on `CC#CCOc1ccc(S(=O)(=O)N[C@H](Cc2cn(Cc3ccc(OCC)cc3)c3ccccc23)C(=O)O)cc1` [Example 215, N-{[4-(but-2-ynyloxy)phenyl]sulfonyl}-1-(4-ethoxybenzyl)-D-tryptophan] yielded an inhibition at 1 µM of 69.5%. With `CC#CCOc1ccc(S(=O)(=O)N[C@@H](Cc2cn(Cc3cccc(OC)c3)c3ccc(C#N)cc23)C(=O)O)cc1` [Example 138, N-{[4-(but-2-ynyloxy)phenyl]sulfonyl}-5-cyano-1-(3-methoxybenzyl)tryptophan] the inhibition at 1 µM was 29.4%.
